From ChEMBL document CHEMBL1158988, “Cytotoxic norditerpene lactones from Ileostylus micranthus” (J Nat Prod, 1991)
≈ marks a conversion by molar mass, not a printed value.

tested on: P388; assay: Cytotoxicity against mouse P388 cells; assay type: functional, cell-based

SMILES	IC50 [µg/mL]
CC(C)[C@H]1OC(=O)C=C2C1=C[C@H]1OC(=O)[C@@]3(C)C[C@H](O)C[C@@]2(C)[C@@H]13	0.06 (≈ 0.181 µM)
CC(C)c1oc(=O)cc2c1[C@@H](O)[C@H]1OC(=O)[C@@]3(C)[C@@H](O)[C@H]4O[C@H]4[C@@]2(C)[C@@H]13 [NAGILACTONE C]	0.33 (≈ 0.911 µM)
CC(C)[C@H]1OC(=O)C=C2[C@@]13O[C@@H]3[C@H]1OC(=O)[C@@]3(C)C[C@H](O)C[C@@]2(C)[C@@H]13	0.06 (≈ 0.172 µM)
C=C[C@H]1OC(=O)C=C2C1=C[C@H]1OC(=O)[C@]3(C)[C@H]1[C@]2(C)[C@H]1O[C@H]1[C@@H]3O [PODOLACTONE E]	< 0.01
CC(C)c1oc(=O)cc2c1[C@@H](O)[C@H]1OC(=O)[C@@]3(C)C[C@H]4O[C@H]4[C@@]2(C)[C@@H]13	0.65 (≈ 1.88 µM)
